Test results reported in patent US20170334899A1, “AMINO-SUBSTITUTED ISOTHIAZOLES” (Bayer Pharma Aktiengesellschaft, priority 2014, published 2017).
Where a name gives a salt, the structure may show the parent alone.

Columns and labels:
[1] = target: T1, catalytic domain of human Bub1 (amino acids 704-1085) (Homo sapiens, UniProt O43683); assay: Bub1 kinase assay (TR-FRET); type: biochemical; conditions: 10 μM ATP, avg, read-out: Bub1 avg (IC50 [mol/l])
T1 construct: catalytic domain of human Bub1 (amino acids 704-1085); His6 (N); made in house; host or cells: insect cells (Hi5)
Summary of the method: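 Readout is the 665/620 nm TR-FRET ratio from anti-phosphoserine antibody, Eu-labelled anti-mouse IgG and streptavidin-XL665, scaled between no-enzyme and uninhibited controls. Reaction: 1 μM biotinylated peptide, 10 μM ATP, 60 min, 22 °C, after 15 min compound preincubation with His6-Bub1 (704-1085, insect-expressed, ~200 ng/ml).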

HeLa = assay: Proliferation assay (crystal violet), HeLa; type: cell-based; conditions: HeLa cells; 4 days incubation; crystal violet staining; read-out: IC50 inhibition of proliferation, HeLa
Summary of the method: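 Tumor cells seeded at 1000–5000 cells/well in medium with 10% FCS; after 24 h, compounds added at 0.001–10 μM (0.5% DMSO) for 4 days. Cells fixed with glutaraldehyde, stained with crystal violet, dye dissolved in acetic acid and read at 595 nm. IC50 from 4-parameter fit, normalized to zero-point plate and untreated cells.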

T1 sequence (O43683 704-1085): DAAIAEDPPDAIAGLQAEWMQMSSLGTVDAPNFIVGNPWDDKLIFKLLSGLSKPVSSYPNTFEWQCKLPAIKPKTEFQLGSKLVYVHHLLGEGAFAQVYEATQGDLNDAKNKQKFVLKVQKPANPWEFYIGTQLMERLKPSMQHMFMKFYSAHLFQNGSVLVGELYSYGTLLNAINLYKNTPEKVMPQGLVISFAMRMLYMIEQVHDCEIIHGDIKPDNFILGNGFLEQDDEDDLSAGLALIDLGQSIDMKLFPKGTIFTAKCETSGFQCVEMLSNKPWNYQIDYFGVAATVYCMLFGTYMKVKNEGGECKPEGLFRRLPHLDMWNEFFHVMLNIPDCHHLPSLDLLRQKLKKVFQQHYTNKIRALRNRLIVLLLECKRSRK

IC50 [1]	IC50 (HeLa)	SMILES
≥ 20 µM	410 nM	Cc1nsc(Nc2cnc(C(F)(F)F)cn2)c1C(=O)Nc1ccc(O[C@@H]2CCN(CCC(F)(F)F)C2)nc1 [Example 423, 3-Methyl-5-{[5-(trifluoromethyl)pyrazin-2-yl]amino}-N-(6-{[(3R)-1-(3,3,3-trifluoropropyl)pyrrolidin-3-yl]oxy}pyridin-3-yl)-1,2-thiazole-4-carboxamide]
≥ 20 µM	420 nM	Cc1nsc(Nc2cnc(C(F)(F)F)cn2)c1C(=O)Nc1ccc(OC2CCN(CCC(F)(F)F)CC2)nc1 [Example 426, 3-Methyl-5-{[5-(trifluoromethyl)pyrazin-2-yl]amino}-N-(6-{[1-(3,3,3-trifluoro-propyl)piperidin-4-yl]oxy}pyridin-3-yl)-1,2-thiazole-4-carboxamide, Salt with Hydrochloric Acid]
